Experiments:
[1] = test system: Npc1^−/− mice; assay: CatWalk automated gait analysis in Npc1−/− mice; type: in vivo, mouse; details: for ataxia (lateral displacement from a straight trajectory): 9-week-old Npc1−/− mice treated from 8 weeks of age (1 week), 0.1 g/kg/day in diet; for ataxia (lateral displacement from a straight trajectory) / duty cycle of hind paws / hind paw stand mean: vs untreated Npc1−/−; for magnitude of ataxia: Npc1−/− mice treated from weaning (3 weeks), assessed at 9 weeks (6 weeks of treatment)
Experimental: BALBc/NPC ^h and Sandhoff mice were bred as heterozygotes to generate affected mice (Npc1^−/−, Hexb^−/−) and controls (Npc^+/+, Hexb^+/+). The mice were housed under non-sterile conditions, with food and water available ad libitum. All experiments were conducted using protocols approved by the UK Home Office Animal Scientific Procedures Act, 1986.
(§1) ADLL and enantiomers (ADLL: Molekula #73891210, ALL: Sigma Aldrich #441511, ADL: Sigma #A0876) were administered as dry admix in powdered mouse diet (PicoLab Rodent Diet 20/5053, LabDiet) at a dose of 0.1 g/kg/day for in vivo studies. Treatment groups for in vivo study consisted of at least 5 mice per group. In vitro studies were conducted with each compound dissolved in PBS to generate a 50 mM stock solution and diluted to a 1 mM working concentration in media (DMEM High Glucose-Gibco #10566016).
Miglustat (Monsanto/Oxford GlycoSciences) was administered as a dry solid mixed with powdered chow (600 mg/kg/day) (see above) alone or in combination with ADLL.
The weight and activity of each mouse was recorded weekly until reaching the humane endpoint (defined as a loss of 1 g body weight within 24 h). Gait analysis was performed using CatWalk 10.5 system (Noldus) according to the manufacturer's instructions and five runs were recorded per animal at each time point. The camera was set to 40 cm below the walkway, the walkway was approximately 4 cm wide, and detection settings set to camera gain 14.05 and green intensity 0.12. Motor function was measured using an accelerating NG Rota Rod for mice (Ugo Basile) starting from 1 rpm to 10 rpm, accelerating every 30 seconds by one rpm. Bar crossing experiments on Sandhoff animals were conducted to measure motor strength and coordination. The apparatus used was modified from published studies. Briefly, a metal bar (1.2 mm width and 26 cm in length) was suspended horizontally between two wooden supports 30 cm high over a cushioned surface and animals were allowed to grasp the center of the bar with forepaws only, the tail was released, and the clock was started. Latency to cross or fall from the bar was scored, with 120 sec, maximum, to termination of each trial. A score was given to each animal between +120 and −120. If crossing time was greater than 0, then score=120−CT; if falling time was greater than 0, the score=FT−120.

[2] = test system: Npc1^−/− Chinese Hamster Ovary (CHO) cells; assay: Sphingosine, total GSL and cholesterol content in NPC1 null CHO cells; type: cell-based; details: 1 mM, 72 hours
Experimental: Wild type and NPC1 null Chinese Hamster Ovary (CHO) cells were kindly provided by Chris Wassif (NIH).
as §1
Sphingoid Base Measurements: Sphingoid bases (sphingosine and sphinganine) were extracted from 100 uL tissue homogenates in 500 uL of chloroform:methanol (1:2v/v) followed by sonication for 10 minutes at room temperature. Subsequently, 1 M 500-uL sodium chloride, 500 uL chloroform, and 3 M 100 uL sodium hydroxide were added to the samples, and vortexed every five minutes for 15 minutes at room temperature. Homogenates were centrifuged (13,000 g for 10 minutes) and the lower organic phase retained. Sphingoid bases were purified from the samples by pre-equilibrating SPA-NH2 columns with 2×1 mL chloroform followed by sample elution with 3×300 ul acetone. The samples were dried under nitrogen. Lipids were resuspended in 50 uL pre-warmed ethanol (37° C.) and 50 uL OPA labelling solution (1 mg OPA/20 uL Ethanol/1 uL 2-mercaptoethanol; dilution 1:2000 in 3% boric acid pH 10.5) was added. Samples were kept at room temperature in the dark for 20 minutes and vortexed every 10 minutes. Samples were buffered with 100 uL methanol: 5 mM Tris pH 7 (9:1) and centrifuged at 5,000 g for 2 minutes. Supernatants (150 uL) were loaded onto a reverse phase HPLC. Chromatography was carried out using a mobile phase of 85% acetonitrile/15% H2O at a flow rate of 1.0 ml/min. The orthophthaldehyde-labelled derivatives were monitored at an excitation wavelength of 340 nm and an emission wavelength of 450 nm. Quantification of trace peak area was carried out using EZChrom Elite software v3.2.1.
Glycosphingolipid measurements: Glycosphingolipids were extracted and measured by NP-HPLC according to published methods. Tissue homogenates in chloroform/methanol (C:M) (1:2 v/v) overnight at 4° C. The mixture was centrifuged (3000 rpm/10 min) and 1 mL chloroform and 1 mL PBS were added to the supernatant and centrifuged (3000 rpm/10 min). The lower phase was dried under N2, resuspended in 50 uL C:M 1:3 v/v and combined with the upper phase. Subsequently, GSLs were recovered using C18 Isolute columns (100 mg) (Biotage) pre-equilibrated with 4×1 mL MeOH and 2×1 mL H2O. Samples were washed 3×1 mL H2O and eluted with 1 mL C:M 98:2, 2×1 mL C:M 1:3, 1 mL MeOH. The column eluate was dried under N2, resuspended in 100 uL C:M 2:1, dried again under N2 and resuspended in ceramide glycanase (CGase) buffer (50 mM sodium acetate pH 5.5, 1 mg/mL sodium taurodeoxycholate). 50 mU CGase was added, and samples incubated at 37° C. overnight. Released oligosaccharides were anthranilic acid (2-AA) labelled and purified by mixing with 1 mL Acetonitrile: H2O 97:3 and added to Discovery DPA-6S columns (SUPELCO, # 52625-U) pre-equilibrated with 1 mL acetonitrile, 2×1 mL H2O, and 2×1 mL acetonitrile. Columns were washed with 2×1 mL Acetonitrile: H2O 95:5 v/v, and eluted in 2×0.75 mL H2O. Samples were loaded 30:70 H2O: MeCN (v/v) for normal phase HPLC. Solvent A was acetonitrile, solvent B was H2O, and solvent C was 100 mM […] (pH 3.85) in H2O. Separation was carried out at 30° C. using Waters Alliance 2695 separation module, excitation 360, emission 425 using Waters 2475 Fluorescence detector.
Cholesterol measurements: Cholesterol was measured with the Amplex Red kit (Molecular Probes) according to the manufacturer's instructions. Briefly, cell and tissue homogenates in 100 uL mQ water were Folch extracted and dried down under nitrogen. […]

[3] = Npc1−/− mice treated from 3 weeks, assessed at 8 weeks

| SMILES | ataxia (lateral displacement from a straight trajectory) [1] | motor function assessed using Catwalk [1, 3] | magnitude of ataxia [1] | reduction of cholesterol content [2] [%] | reduction of sphingosine levels [2] [%] | reduction of total GSL levels [2] [%] | duty cycle of hind paws [1, 3] | hind paw stand mean [1, 3] |
| --- | --- | --- | --- | --- | --- | --- | --- | --- |
| CC(=O)N[C@H](CC(C)C)C(=O)O [ADL, N-acetyl-D-leucine] | significantly reduced ataxia | no significant benefit | significantly reduced | 14 | 14 | 22 | – | – |
| CC(=O)NC(CC(C)C)C(=O)O (racemic) [ADLL, N-acetyl-DL-leucine] | significantly reduced ataxia | – | significantly reduced | 18 | 22 | 26 | significantly reduced | significantly reduced |
| CC(=O)N[C@@H](CC(C)C)C(=O)O [ALL, N-acetyl-L-leucine] | significantly reduced ataxia | – | significantly reduced | 13 | 29 | 25 | significantly reduced | significantly reduced |

Reference: patent US12697316B2, “Combination therapy with acetyl-leucine and miglustat” (INTRABIO LTD., priority 2019, dated 2026)
